Several values for one entry are separate records, joined by “and”; a condition that tells them apart may be missing. Equal values may be shown once. Read-outs that look alike come from different tables or passages of the source.

The source of these data is patent publication US20260232713A1, “PLECOMACROLIDE DERIVATIVES FOR MHC-I NEF DOWNMODULATION” (priority 2022, published 2026).

The target of one data set is T1, V-ATPase (Homo sapiens, UniProt P27449).
T1 construct: endogenous in cells; host or cells: primary CD4+ T cells (HIV ΔGPE infected) from donor PBMCs
T1 sequence (P27449 whole entry, looked up): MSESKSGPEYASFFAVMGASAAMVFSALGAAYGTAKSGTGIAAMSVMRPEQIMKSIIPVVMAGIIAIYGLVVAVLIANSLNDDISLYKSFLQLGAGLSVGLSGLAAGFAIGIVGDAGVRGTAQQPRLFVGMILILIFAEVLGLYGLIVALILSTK
Kind of data set: Lysosomal acidification (Lysotracker mean fluorescence intensity) as indicator of V-ATPase activity in primary CD4+ T cells. In kind it is cell-based. How it is done:
(§1) Inhibition of HIV-Nef was measured by assessing its capacity to downmodulate MHC-I HLA-A2 on the surface of primary CD4+ T cells 24-hours after treatment with each compound. V-ATPase inhibition was assessed at the same time point using lysosomal acidification as an indicator of V-ATPase activity. This was measured using a flow cytometric assay that quantified Lysotracker mean fluorescence intensity as previously described (Painter et al., 2020). Cell viability was measured at 24-hour and 72-hour time points using a previously described flow cytometric assay (Painter et al., 2020).
(§2) Anonymized leukocytes isolated by apheresis were obtained from New York Blood Center and peripheral blood mononuclear cells (PBMCs) were isolated by Ficoll-Paque Plus (17144002; GE Healthcare) centrifugation using SepMate tubes (85450; StemCell Technologies) according to the manufacturers protocol. […] Then, 20-24 hours post-PHA activation, 15 mL of R10/PHA medium is removed and replaced with 5 mL of R10+100u/mL Recombinant Human IL-2 (202|L010; R&D Systems). 48 hours after IL-2 stimulation, primary CD4^+ T cells were infected via spinoculation with previously described HIV ΔGPE construct.
(§3) 48 hours after spinoculation, cells were pooled and plated in flat bottom 96-well plate. […] Compounds were thawed at room temperature and diluted in R10 medium to 2× starting concentration.
(§4) All ΔGPE infected cells were collected 24 hours after treatment.
(§5) All statistical analyses were performed using GraphPad Prism software. Curves were generated using GraphPad Prism software using [Inhibitor] vs. response with variable slope (four parameters).

The nature of a further data set: in vitro. Conditions: human. How it is done: as §1, §2, §3, §4
(§6) All Mock cells were collected 72 hours after treatment.
as §5

For another data set, the system named is primary CD4+ T cells. Kind of data set: in vitro. The note with it: ratio TC50 to Nef IC50. How it is done:
as §1, §2, §3, §4, §6, §5

As to `CC[C@H]1OC(=O)[C@H](C)[C@@H](O)[C@@H](C)C[C@@H](C)C(=O)/C=C/[C@H]1C` [10-deoxymethynolide, reference compound], on V-ATPase (Lysotracker Red, ΔGPE infected primary CD4+ T cells, 24 hours after treatment, read-out: Lysotracker (V-ATPase IC50, lysosomal neutralization)), the IC50 stood at 1720 nM. This molecule also gave a CC50 at 72 h in “in vitro” of 140 nM. The “Viability:Nef (therapeutic window separating Nef IC50 and TC50)” value (“Viability:Nef” below) in the data set on primary CD4+ T cells worked out at 0.39 fold.
Turning to `CC=CC1OC(O)(C(C)C(O)C(C)C2OC(=O)C(OC)=CC(C)=CC(C)C(O)C(CC)C(O)C(C)CC(C)=CC=CC2OC)CC(OC2CC(O)C(OC(N)=O)C(C)O2)C1C` (stereo not drawn) [Compound 1, Concanamycin A, reference compound], it took 1.7 nM to reach half-maximal inhibition against V-ATPase (IC50). In addition, the CC50 in the data set “in vitro” stood at 1.3 nM. Besides, the “Viability:Nef” value in the data set on primary CD4+ T cells is given as 6.6 fold.
Molecule `CC=CC1OC(O)(C(C)C(O)C(C)C2OC(=O)C(OC)=CC(C)=CC(C)C(O)C(C)C(O)C(C)CC(C)=CC=CC2OC)CC(OC2CC(O)C(OC(N)=O)C(C)O2)C1C` (stereo not drawn) [Compound 4, concanamycin B, reference compound] yielded an IC50 at V-ATPase of 26 nM. Moreover, in the data set “in vitro”, the CC50 turned out to be 7 nM. The “Viability:Nef” value in the data set on primary CD4+ T cells was 5 fold and 5.5 fold.
`C/C=C/[C@H]1O[C@@](O)([C@@H](C)[C@H](O)[C@H](C)[C@H]2OC(=O)/C(OC)=C/C(C)=C/[C@@H](C)[C@@H](O)[C@@H](CC)[C@@H](O)[C@H](C)C/C(C)=C/C=C/[C@@H]2OC)C[C@@H](O[C@@H]2C[C@H](OC(=O)CCCC)[C@@H](OC(N)=O)[C@H](C)O2)[C@@H]1C` [Compound 8, 3-pentanoate Concanamycin A] displayed an IC50 against V-ATPase of 11 nM. Besides, the CC50 in “in vitro” stood at 3.5 nM. Besides, in the data set on primary CD4+ T cells, the “Viability:Nef” value was 4.8 fold.
In the same order, the values of `C/C=C/[C@H]1O[C@@](O)([C@@H](C)[C@H](O)[C@H](C)[C@H]2OC(=O)/C(OC)=C/C(C)=C/[C@@H](C)[C@@H](O)[C@@H](C)[C@@H](O)[C@H](C)C/C(C)=C/C=C/[C@@H]2OC)C[C@@H](O[C@@H]2C[C@H](OC(=O)CCCC)[C@@H](OC(N)=O)[C@H](C)O2)[C@@H]1C` [Compound 9, 3-pentanoate Concanamycin B] are 110 nM, 27 nM and 7.9 fold.
As to `C/C=C/[C@H]1O[C@@](O)([C@@H](C)[C@H](O)[C@H](C)[C@H]2OC(=O)/C(OC)=C/C(C)=C/[C@@H](C)[C@@H](O)[C@@H](C)[C@@H](OC(=O)CCCC)[C@H](C)C/C(C)=C/C=C/[C@@H]2OC)C[C@@H](O[C@@H]2C[C@H](OC(=O)CCCC)[C@@H](OC(N)=O)[C@H](C)O2)[C@@H]1C` [Compound 10, 3′,9-Dipentanoate Concanamycin B], the half-inhibitory concentration (IC50) against V-ATPase is 130 nM. Also, in the data set “in vitro”, the CC50 is 35 nM. The “Viability:Nef” value in the data set on primary CD4+ T cells was found to be 5.8 fold.
In the same order, the values of `C/C=C/[C@H]1O[C@@](O)([C@@H](C)[C@H](O)[C@H](C)[C@H]2OC(=O)/C(OC)=C/C(C)=C/[C@@H](C)[C@@H](O)[C@@H](C)[C@@H](O)[C@H](C)C/C(C)=C/C=C/[C@@H]2OC)C[C@@H](O[C@@H]2C[C@H](OC(=O)CCCCCCCC)[C@@H](OC(N)=O)[C@H](C)O2)[C@@H]1C` [Compound 11, 3-nonanoate Concanamycin B] are 170 nM, 36 nM and 4.3 fold.
`C/C=C/[C@H]1O[C@@](O)([C@@H](C)[C@H](O)[C@H](C)[C@H]2OC(=O)/C(OC)=C/C(C)=C/[C@@H](C)[C@@H](O)[C@@H](C)[C@@H](O)[C@H](C)C/C(C)=C/C=C/[C@@H]2OC)C[C@@H](O[C@@H]2C[C@H](OC(C)=O)[C@@H](OC(N)=O)[C@H](C)O2)[C@@H]1C` [Compound 12, 3′-Acetyl Concanamycin B] had a concentration for half-maximal inhibition (IC50) against V-ATPase of 20 nM. The CC50 in the data set “in vitro” came out at 5.3 nM. Also, in the data set with primary CD4+ T cells, the “Viability:Nef” value is 8 fold and 8.0 fold.
